According to patent US6689773B2, “Uracil substituted phenyl sulfamoyl carboxamides” (BASF Aktiengesellschaft, priority 2000, dated 2004):

Tests used:
Type in all cases: in vivo
[1] = system: DIGSA, Crabgrass, (Hairy) L, Digitaria sanguinalis, (L)Scop; experiment: Postemergence herbicidal evaluation (Example 147); conditions: rating scale 0-9, two to three weeks after treatment
Procedure: (§1) Seedling plants were grown in jiffy flats for about two weeks. The test compounds were dispersed in 80/20 acetone/water mixtures containing 1.0% SUN-IT®II, a methylated seed oil, in sufficient quantities to provide the equivalent of about 0.016 to 0.032 kg per hectare of active compound when applied to the plants through a spray nozzle operating at 40 psi for a predetermined time. After spraying, the plants were placed on greenhouse benches and were cared for in accordance with conventional greenhouse procedures. Approximately two to three weeks after treatment, the seedling plants were examined and rated according to the rating scale (0-9) set forth below. Where more than one test is involved for a given compound, the data are averaged. [table] The scale is based upon a visual observation of plant stand, vigor, malformation, size, chlorosis and overall plant appearance as compared with a control. Plant species employed in these evaluations are reported by header abbreviation, common name and scientific name. [table]

[2] = system: SETVI, Green foxtail, Setaria viridis, (L.)Beau; experiment: Postemergence herbicidal evaluation (Example 147); conditions: rating scale 0-9, two to three weeks after treatment
Procedure: as §1

[3] = system: ABUTH, Velvetleaf, Abutilon theophrasti, Medic.; experiment: Postemergence herbicidal evaluation (Example 147); conditions: rating scale 0-9, two to three weeks after treatment
Procedure: as §1

[4] = system: IPOHE, Morningglory, Ivyleaf, Ipomoea hederacea, (L)Jacq.; experiment: Postemergence herbicidal evaluation (Example 147); conditions: rating scale 0-9, two to three weeks after treatment
Procedure: as §1

[5] = system: ALOMY, Blackgrass, Alopecurus myosuroides; experiment: Postemergence herbicidal evaluation (Example 147); conditions: rating scale 0-9, two to three weeks after treatment
Procedure: as §1

[6] = system: XANST, Cocklebur, Xanthium strumariam; experiment: Postemergence herbicidal evaluation (Example 147); conditions: rating scale 0-9, two to three weeks after treatment
Procedure: as §1

[7] = system: ZEAMX, Field corn, Zea mays L.; experiment: Postemergence herbicidal evaluation (Example 147); conditions: rating scale 0-9, two to three weeks after treatment
Procedure: as §1

[8] = system: CHEAL, Lambsquarters, Chenopodium album, L. Common; experiment: Postemergence herbicidal evaluation (Example 147); conditions: rating scale 0-9, two to three weeks after treatment
Procedure: as §1

[9] = system: ECHCG, Barnyardgrass, Echinochloa crusgalli, (L.)Beau; experiment: Postemergence herbicidal evaluation (Example 147); conditions: rating scale 0-9, two to three weeks after treatment
Procedure: as §1

[10] = system: TRZAW, Winter wheat, Tritium Aestivum, L. (Winter); experiment: Postemergence herbicidal evaluation (Example 147); conditions: rating scale 0-9, two to three weeks after treatment
Procedure: as §1

[11] = system: GLXMA, Soybean, Glycine max, (L.) Merr.; experiment: Postemergence herbicidal evaluation (Example 147); conditions: rating scale 0-9, two to three weeks after treatment
Procedure: as §1

[12] = system: AMBEL, Ragweed, Common, Ambrosia artemiisifolia, L.; experiment: Postemergence herbicidal evaluation (Example 147); conditions: rating scale 0-9, two to three weeks after treatment
Procedure: as §1

[13] = system: DIGSA, Crabgrass, (Hairy) L, Digitaria sanguinalis, (L)Scop; experiment: Preemergence herbicidal evaluation (Example 148); conditions: rating scale 0-9, two to four weeks after treatment
Procedure: (§2) The scale is based upon a visual observation of plant stand, vigor, malformation, size, chlorosis and overall plant appearance as compared with a control.
(§3) The herbicidal activity of the compounds of the present invention was evaluated by the following tests wherein the seeds of a variety of monocotyledonous and dicotyledonous plants were separately mixed with potting soil and planted on top of approximately one inch of soil in separate pint cups. After planting, the cups were sprayed with the selected aqueous acetone solution containing test compound in sufficient quantity to provide the equivalent of about 0.125 to 0.250 kg per hectare of test compound per cup. The treated cups were then placed on greenhouse benches, watered and cared for in accordance with conventional greenhouse procedures. From two to four weeks after treatment, the tests were terminated and each cup was examined and rated according to the rating system provided in Example 94. When more than one test was performed for a given compound, the data were averaged.

[14] = system: SETVI, Green foxtail, Setaria viridis, (L.)Beau; experiment: Preemergence herbicidal evaluation (Example 148); conditions: rating scale 0-9, two to four weeks after treatment
Procedure: as §2, §3

[15] = system: ABUTH, Velvetleaf, Abutilon theophrasti, Medic.; experiment: Preemergence herbicidal evaluation (Example 148); conditions: rating scale 0-9, two to four weeks after treatment
Procedure: as §2, §3

[16] = system: IPOHE, Morningglory, Ivyleaf, Ipomoea hederacea, (L)Jacq.; experiment: Preemergence herbicidal evaluation (Example 148); conditions: rating scale 0-9, two to four weeks after treatment
Procedure: as §2, §3

[17] = system: ALOMY, Blackgrass, Alopecurus myosuroides; experiment: Preemergence herbicidal evaluation (Example 148); conditions: rating scale 0-9, two to four weeks after treatment
Procedure: as §2, §3

[18] = system: ZEAMX, Field corn, Zea mays L.; experiment: Preemergence herbicidal evaluation (Example 148); conditions: rating scale 0-9, two to four weeks after treatment
Procedure: as §2, §3

[19] = system: CHEAL, Lambsquarters, Chenopodium album, L. Common; experiment: Preemergence herbicidal evaluation (Example 148); conditions: rating scale 0-9, two to four weeks after treatment
Procedure: as §2, §3

[20] = system: ECHCG, Barnyardgrass, Echinochloa crusgalli, (L.)Beau; experiment: Preemergence herbicidal evaluation (Example 148); conditions: rating scale 0-9, two to four weeks after treatment
Procedure: as §2, §3

[21] = system: TRZAW, Winter wheat, Tritium Aestivum, L. (Winter); experiment: Preemergence herbicidal evaluation (Example 148); conditions: rating scale 0-9, two to four weeks after treatment
Procedure: as §2, §3

[22] = system: AMBEL, Ragweed, Common, Ambrosia artemiisifolia, L.; experiment: Preemergence herbicidal evaluation (Example 148); conditions: rating scale 0-9, two to four weeks after treatment
Procedure: as §2, §3

Cn1c(C(F)(F)F)cc(=O)n(-c2cc(C(=O)NS(=O)(=O)NC(C)(C)C)c(Cl)cc2F)c1=O [Example 65]
Postemergence herbicidal rating DIGSA ([1]; rate 0.016 kg/ha): 6.0
Postemergence herbicidal rating DIGSA ([1]; rate 0.032 kg/ha): 8.0
Postemergence herbicidal rating SETVI ([2]; rate 0.016 kg/ha): 8.0
Postemergence herbicidal rating SETVI ([2]; rate 0.032 kg/ha): 8.0
Postemergence herbicidal rating ABUTH ([3]; rate 0.016 kg/ha): 9.0
Postemergence herbicidal rating ABUTH ([3]; rate 0.032 kg/ha): 9.0
Postemergence herbicidal rating IPOHE ([4]; rate 0.016 kg/ha): 9.0
Postemergence herbicidal rating IPOHE ([4]; rate 0.032 kg/ha): 9.0
Postemergence herbicidal rating ALMOY ([5]; rate 0.016 kg/ha): 2.0
Postemergence herbicidal rating ALMOY ([5]; rate 0.032 kg/ha): 3.0
Postemergence herbicidal rating XANST ([6]; rate 0.016 kg/ha): 9.0
Postemergence herbicidal rating XANST ([6]; rate 0.032 kg/ha): 9.0
Postemergence herbicidal rating ZEAMX ([7]; rate 0.016 kg/ha): 7.5
Postemergence herbicidal rating ZEAMX ([7]; rate 0.032 kg/ha): 8.0
Postemergence herbicidal rating CHEAL ([8]; rate 0.016 kg/ha): 8.0
Postemergence herbicidal rating CHEAL ([8]; rate 0.032 kg/ha): 9.0
Postemergence herbicidal rating ECHCG ([9]; rate 0.016 kg/ha): 8.0
Postemergence herbicidal rating ECHCG ([9]; rate 0.032 kg/ha): 9.0
Postemergence herbicidal rating TRZAW ([10]; rate 0.016 kg/ha): 5.5
Postemergence herbicidal rating TRZAW ([10]; rate 0.032 kg/ha): 6.5
Postemergence herbicidal rating GLXMA ([11]; rate 0.016 kg/ha): 8.0
Postemergence herbicidal rating GLXMA ([11]; rate 0.032 kg/ha): 8.5
Postemergence herbicidal rating AMBEL ([12]; rate 0.016 kg/ha): 9.0
Postemergence herbicidal rating AMBEL ([12]; rate 0.032 kg/ha): 9.0
Preemergence herbicidal rating DIGSA ([13]; rate 0.125 kg/ha): 7.0
Preemergence herbicidal rating DIGSA ([13]; rate 0.25 kg/ha): 9.0
Preemergence herbicidal rating SETVI ([14]; rate 0.125 kg/ha): 3.0
Preemergence herbicidal rating SETVI ([14]; rate 0.25 kg/ha): 6.0
Preemergence herbicidal rating ABUTH ([15]; rate 0.125 kg/ha): 9.0
Preemergence herbicidal rating ABUTH ([15]; rate 0.25 kg/ha): 9.0
Preemergence herbicidal rating IPOHE ([16]; rate 0.125 kg/ha): 9.0
Preemergence herbicidal rating IPOHE ([16]; rate 0.25 kg/ha): 9.0
Preemergence herbicidal rating ALMOY ([17]; rate 0.125 kg/ha): 0.0
Preemergence herbicidal rating ALMOY ([17]; rate 0.25 kg/ha): 0.0
Preemergence herbicidal rating ZEAMX ([18]; rate 0.125 kg/ha): 0.0
Preemergence herbicidal rating ZEAMX ([18]; rate 0.25 kg/ha): 1.0
Preemergence herbicidal rating CHEAL ([19]; rate 0.125 kg/ha): 9.0
Preemergence herbicidal rating CHEAL ([19]; rate 0.25 kg/ha): 9.0
Preemergence herbicidal rating ECHCG ([20]; rate 0.125 kg/ha): 8.0
Preemergence herbicidal rating ECHCG ([20]; rate 0.25 kg/ha): 9.0
Preemergence herbicidal rating TRZAW ([21]; rate 0.125 kg/ha): 1.0
Preemergence herbicidal rating TRZAW ([21]; rate 0.25 kg/ha): 1.0
Preemergence herbicidal rating AMBEL ([22]; rate 0.125 kg/ha): 9.0
Preemergence herbicidal rating AMBEL ([22]; rate 0.25 kg/ha): 9.0

CCCN(C)S(=O)(=O)NC(=O)c1cc(-n2c(=O)cc(C(F)(F)F)n(C)c2=O)c(F)cc1Cl [Example 67]
Postemergence herbicidal rating DIGSA ([1]; rate 0.016 kg/ha): 6.0
Postemergence herbicidal rating DIGSA ([1]; rate 0.032 kg/ha): 6.0
Postemergence herbicidal rating SETVI ([2]; rate 0.016 kg/ha): 8.0
Postemergence herbicidal rating SETVI ([2]; rate 0.032 kg/ha): 8.0
Postemergence herbicidal rating ABUTH ([3]; rate 0.016 kg/ha): 9.0
Postemergence herbicidal rating ABUTH ([3]; rate 0.032 kg/ha): 9.0
Postemergence herbicidal rating IPOHE ([4]; rate 0.016 kg/ha): 9.0
Postemergence herbicidal rating IPOHE ([4]; rate 0.032 kg/ha): 9.0
Postemergence herbicidal rating ALMOY ([5]; rate 0.016 kg/ha): 2.0
Postemergence herbicidal rating ALMOY ([5]; rate 0.032 kg/ha): 3.0
Postemergence herbicidal rating XANST ([6]; rate 0.016 kg/ha): 9.0
Postemergence herbicidal rating XANST ([6]; rate 0.032 kg/ha): 9.0
Postemergence herbicidal rating ZEAMX ([7]; rate 0.016 kg/ha): 7.5
Postemergence herbicidal rating ZEAMX ([7]; rate 0.032 kg/ha): 7.5
Postemergence herbicidal rating CHEAL ([8]; rate 0.016 kg/ha): 9.0
Postemergence herbicidal rating CHEAL ([8]; rate 0.032 kg/ha): 9.0
Postemergence herbicidal rating ECHCG ([9]; rate 0.016 kg/ha): 8.0
Postemergence herbicidal rating ECHCG ([9]; rate 0.032 kg/ha): 8.0
Postemergence herbicidal rating TRZAW ([10]; rate 0.016 kg/ha): 6.5
Postemergence herbicidal rating TRZAW ([10]; rate 0.032 kg/ha): 7.0
Postemergence herbicidal rating GLXMA ([11]; rate 0.016 kg/ha): 8.0
Postemergence herbicidal rating GLXMA ([11]; rate 0.032 kg/ha): 8.5
Postemergence herbicidal rating AMBEL ([12]; rate 0.016 kg/ha): 9.0
Postemergence herbicidal rating AMBEL ([12]; rate 0.032 kg/ha): 9.0
Preemergence herbicidal rating DIGSA ([13]; rate 0.125 kg/ha): 7.0
Preemergence herbicidal rating DIGSA ([13]; rate 0.25 kg/ha): 8.0
Preemergence herbicidal rating SETVI ([14]; rate 0.125 kg/ha): 8.0
Preemergence herbicidal rating SETVI ([14]; rate 0.25 kg/ha): 8.0
Preemergence herbicidal rating ABUTH ([15]; rate 0.125 kg/ha): 9.0
Preemergence herbicidal rating ABUTH ([15]; rate 0.25 kg/ha): 9.0
Preemergence herbicidal rating IPOHE ([16]; rate 0.125 kg/ha): 9.0
Preemergence herbicidal rating IPOHE ([16]; rate 0.25 kg/ha): 9.0
Preemergence herbicidal rating ALMOY ([17]; rate 0.125 kg/ha): 0.0
Preemergence herbicidal rating ALMOY ([17]; rate 0.25 kg/ha): 0.0
Preemergence herbicidal rating ZEAMX ([18]; rate 0.125 kg/ha): 0.0
Preemergence herbicidal rating ZEAMX ([18]; rate 0.25 kg/ha): 1.0
Preemergence herbicidal rating CHEAL ([19]; rate 0.125 kg/ha): 9.0
Preemergence herbicidal rating CHEAL ([19]; rate 0.25 kg/ha): 9.0
Preemergence herbicidal rating ECHCG ([20]; rate 0.125 kg/ha): 8.0
Preemergence herbicidal rating ECHCG ([20]; rate 0.25 kg/ha): 9.0
Preemergence herbicidal rating TRZAW ([21]; rate 0.125 kg/ha): 0.0
Preemergence herbicidal rating TRZAW ([21]; rate 0.25 kg/ha): 1.0
Preemergence herbicidal rating AMBEL ([22]; rate 0.125 kg/ha): 9.0
Preemergence herbicidal rating AMBEL ([22]; rate 0.25 kg/ha): 7.0
